Reference: ChEMBL document CHEMBL1153813, “Synthesis of biotinylated OSW-1” (Bioorg Med Chem Lett, 2009)

Key:
Format in all cases: functional, cell-based
[1] = system: PANC-1; assay: Antiproliferative activity against human PANC1 cells after 72 hrs by MTT assay; details: PANC-1, 72 h
[2] = system: HL-60; assay: Antiproliferative activity against human HL60 cells after 72 hrs by MTT assay; details: HL-60, 72 h
[3] = Antiproliferative activity against human WM35 cells after 72 hrs by MTT assay; details: WM35, 72 h
[4] = system: ASPC1; assay: Antiproliferative activity against human AsPC1 cells after 72 hrs by MTT assay; details: ASPC1, 72 h
[5] = system: A-375; assay: Antiproliferative activity against human A375 cells after 72 hrs by MTT assay; details: A-375, 72 h

## COc1ccc(C(=O)O[C@H]2[C@H](O[C@@H]3[C@@H](O)[C@H](O[C@H]4C[C@H]5[C@@H]6CC=C7C[C@@H](OC(=O)CCCCCCCNC(=O)CCCC[C@@H]8SC[C@@H]9NC(=O)N[C@@H]98)CC[C@]7(C)[C@H]6CC[C@]5(C)[C@@]4(O)[C@H](C)C(=O)CCC(C)C)OC[C@@H]3O)OC[C@@H](O)[C@@H]2O)cc1
[1]
  IC50: 1.1 nM
[2]
  IC50: 0.1 nM
[3]
  IC50: 0.2 nM
[4]
  IC50: 0.7 nM
[5]
  IC50: 0.2 nM
